Laboratory results published in article PMC10535292, “Quinoline- and Isoindoline-Integrated Polycyclic Compounds as Antioxidant, and Antidiabetic Agents Targeting the Dual Inhibition of α-Glycosidase and α-Amylase Enzymes” (Pharmaceuticals, 2023).
Where two headings read alike, the source gives them in different places. Values belong to the compound of their own block, whether it stands above or below them.

Key:
[1] = ABTS cation radical scavenging assay; settings: mean ± SE, triplicate; read-out: EC50 Radical Scavenging Activities ABTS
Protocol: (§1) The ability of the samples to scavenge free radicals was evaluated using a range of in vitro tests, including DPPH, ABTS, and superoxide anion radicals, with BHA utilized as a positive control.
(§2) The DPPH free radical, ABTS cation radical, and superoxide anion radical scavenging approaches were used in the antioxidant activity of the present study. The capacity for the radical scavenging was represented by EC50 values. […] Every sample was observed three times. Butylated hydroxyanisole (BHA) is the positive control drug in this evaluation of antioxidant activity.

[2] = target: T1, yeast α-glycosidase (Saccharomyces cerevisiae, UniProt P38158); experiment: biochemical
T1 sequence (P38158 whole entry): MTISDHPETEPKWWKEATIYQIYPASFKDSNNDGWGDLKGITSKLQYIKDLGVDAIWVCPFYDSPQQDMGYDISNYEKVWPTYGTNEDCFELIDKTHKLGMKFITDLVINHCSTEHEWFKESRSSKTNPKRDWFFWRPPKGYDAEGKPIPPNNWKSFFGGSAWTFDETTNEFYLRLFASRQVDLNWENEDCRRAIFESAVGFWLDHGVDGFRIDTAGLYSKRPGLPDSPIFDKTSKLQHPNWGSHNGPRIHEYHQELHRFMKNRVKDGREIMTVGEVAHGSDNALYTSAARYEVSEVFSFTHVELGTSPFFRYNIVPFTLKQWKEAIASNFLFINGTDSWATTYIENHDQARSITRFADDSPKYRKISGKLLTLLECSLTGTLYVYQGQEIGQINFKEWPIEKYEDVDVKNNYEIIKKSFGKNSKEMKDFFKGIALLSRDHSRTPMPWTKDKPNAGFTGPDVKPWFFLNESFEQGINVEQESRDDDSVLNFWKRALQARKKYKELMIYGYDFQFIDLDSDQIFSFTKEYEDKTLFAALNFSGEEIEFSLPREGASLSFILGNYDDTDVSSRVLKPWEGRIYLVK
Description: (§3) Inhibitory activity of α-amylase and α-glycosidase was expressed as percent inhibition, calculated using the following formula. Inhibition (%) = (A control − A sample)/A control × 100
(§4) The IC50 values were obtained from a graph that correlated the percentage of the inhibition of each sample with its concentration. Each experiment included three replicates, along with appropriate blanks.

[3] = Superoxide anion radical scavenging assay; settings: mean ± SE, triplicate; read-out: EC50 Radical Scavenging Activities Superoxide Anion Radicals
Protocol: as §1, §2

[4] = target: T2, type-VI B porcine pancreatic α-amylase (Sus scrofa, UniProt P00690); experiment: α-Amylase inhibition with soluble starch (1%); format: biochemical; settings: mean ± SE, triplicate
T2 construct: type-VI B porcine pancreatic α-amylase; from tissue; host or cells: porcine pancreas (preparation grade 'type-VI B')
T2 sequence (P00690 16-511): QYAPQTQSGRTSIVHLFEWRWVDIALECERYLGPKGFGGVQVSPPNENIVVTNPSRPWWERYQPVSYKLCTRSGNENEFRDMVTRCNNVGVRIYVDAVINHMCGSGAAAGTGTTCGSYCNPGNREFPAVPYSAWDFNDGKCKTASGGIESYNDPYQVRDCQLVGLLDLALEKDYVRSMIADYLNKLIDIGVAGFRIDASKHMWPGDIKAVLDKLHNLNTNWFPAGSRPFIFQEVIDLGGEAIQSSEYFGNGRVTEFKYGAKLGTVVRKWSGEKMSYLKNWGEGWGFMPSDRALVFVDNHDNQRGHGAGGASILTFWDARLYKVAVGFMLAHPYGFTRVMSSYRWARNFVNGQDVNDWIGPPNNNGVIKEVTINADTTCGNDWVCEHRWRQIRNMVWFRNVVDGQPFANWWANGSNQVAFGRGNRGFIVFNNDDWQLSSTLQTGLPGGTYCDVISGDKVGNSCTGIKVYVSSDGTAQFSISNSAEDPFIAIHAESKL
Protocol: Moreover, similar tests were carried out to reveal if the synthesized molecules inhibited α-amylase, another important carbohydrate-hydrolyzing enzyme.
as §3, §4

[5] = DPPH free radical scavenging assay; settings: mean ± SE, triplicate; read-out: EC50 Radical Scavenging Activities DPPH
Protocol: as §1, §2

[6] = target: T3, α-amylase (Sus scrofa, UniProt P00690); experiment: Kinetic analysis of α-amylase inhibition (Lineweaver–Burk, Dixon plots); format: biochemical, porcine
T3 construct: type-VI B porcine pancreatic α-amylase; from tissue; host or cells: porcine pancreas (preparation grade 'type-VI B')
T3 sequence (P00690 16-511): T2 sequence (P00690 16-511)
Protocol: (§5) For the kinetic studies, α-glycosidase and α-amylase were incubated with designated concentrations of the substrate pNPG and starch, respectively, in the absence (control) or presence of IC20-, IC40-, and IC60-inhibitory concentrations of 7d. The mode of inhibition, [Km], and [Vmax] values were determined by graphical means using Lineweaver–Burk plots. […] The kinetic results established that the maximum velocity (Vmax) of the 7d reaction (with increasing concentrations) remained constant and was catalyzed by α-glycosidase and α-amylase (Table 3).
(§6) The enzyme kinetics of the compounds’ inhibition of the glycosidase activity were examined using different concentrations of the substrate against the IC20, IC40, and IC60 inhibitory concentrations of the compounds, as previously reported. The type of inhibition, Km, and Vmax were calculated using a double-reciprocal plot of the substrate concentration and velocity (1/V against 1/[pNPG]). The inhibitory constant (Ki) was also determined using the Dixon plot.

[7] = target: T1, yeast α-glycosidase; experiment: Kinetic analysis of α-glycosidase inhibition (Lineweaver–Burk, Dixon plots); format: biochemical
Protocol: as §5, §6

Compound: N#Cc1c(-c2ccccc2)cc(N2C(=O)c3ccccc3C2=O)nc1N [compound 7a, 2-Amino-6-(1,3-dioxoisoindolin-2-yl)-4-phenylnicotinonitrile]
melting point: 167 to 169 °C
EC50 [1]: 2250 ± 220 µM
IC50 [2]: 1780 ± 60 µM
EC50 [3]: 2250 ± 660 µM
IC50 [4]: 3500 ± 1000 µM
EC50 [5]: 1990 ± 90 µM

Compound: N#Cc1c(-c2ccc([N+](=O)[O-])cc2)cc(N2C(=O)c3ccccc3C2=O)[nH]c1=O [8b, 6-(1,3-Dioxoisoindolin-2-yl)-4-(4-nitrophenyl)-2-oxo-1,2-dihydropyridine-3-carbonitrile]
melting point: 221 to 223 °C
EC50 [1]: 9880 ± 2250 µM
IC50 [2]: 1010 ± 40 µM
EC50 [3]: 6000 ± 2450 µM
IC50 [4]: 1600 ± 830 µM
EC50 [5]: 4500 ± 790 µM

Compound: N#Cc1c(-c2ccccc2O)nn(C(=O)COc2cccc3cccnc23)c1N [4c, 5-Amino-3-(2-hydroxyphenyl)-1-(2-(quinolin-8-yloxy)acetyl)-1H-pyrazole-4-carbonitrile]
melting point: 157 to 159 °C
EC50 [1]: 7860 ± 550 µM
IC50 [2]: 1110 ± 740 µM
EC50 [3]: 5950 ± 1050 µM
IC50 [4]: 1600 ± 770 µM
EC50 [5]: 4550 ± 1570 µM

Compound: N#Cc1c(-c2ccc(Cl)c(Cl)c2O)cc(N2C(=O)c3ccccc3C2=O)[nH]c1=O [8d, 4-(3,4-Dichloro-2-hydroxyphenyl)-6-(1,3-dioxoisoindolin-2-yl)-2-oxo-1,2-dihydropyridine-3-carbonitrile]
melting point: 233 to 235 °C
EC50 [1]: 9990 ± 1890 µM
IC50 [2]: 2220 ± 110 µM
EC50 [3]: 5220 ± 850 µM
IC50 [4]: 5000 ± 3000 µM
EC50 [5]: 5050 ± 2220 µM

Compound: S=C1N=NC(COc2cccc3cccnc23)=N1 [compound 6, 5-((Quinolin-8-yloxy)methyl)-3H-1,2,4-triazole-3-thione]
melting point: 187 to 189 °C
EC50 [1]: 8010 ± 330 µM
IC50 [2]: 1500 ± 2000 µM
EC50 [3]: 6100 ± 1540 µM
IC50 [4]: 3650 ± 2470 µM
EC50 [5]: 3330 ± 860 µM

Compound: N#Cc1c(-c2ccccc2O)cc(N2C(=O)c3ccccc3C2=O)nc1N [compound 7c, 2-Amino-6-(1,3-dioxoisoindolin-2-yl)-4-(2-hydroxyphenyl)nicotinonitrile]
melting point: 160 to 162 °C
EC50 [1]: 1230 ± 480 µM
IC50 [2]: 110 ± 40 µM
EC50 [3]: 1000 µM
IC50 [4]: 260 ± 320 µM
EC50 [5]: 1000 ± 850 µM

Compound: N#Cc1c(-c2ccc([N+](=O)[O-])cc2)cc(N2C(=O)c3ccccc3C2=O)nc1N [7b, 2-Amino-6-(1,3-dioxoisoindolin-2-yl)-4-(4-nitrophenyl)nicotinonitrile]
melting point: 153 to 155 °C
EC50 [1]: 2600 ± 770 µM
IC50 [2]: 1050 ± 880 µM
EC50 [3]: 2300 ± 1990 µM
IC50 [4]: 1500 ± 1500 µM
EC50 [5]: 2000 ± 150 µM

Compound: N#Cc1c(-c2ccccc2O)cc(N2C(=O)c3ccccc3C2=O)[nH]c1=O [8c, 6-(1,3-Dioxoisoindolin-2-yl)-4-(2-hydroxyphenyl)-2-oxo-1,2-dihydropyridine-3-carbonitrile]
melting point: 205 to 207 °C
EC50 [1]: 2440 ± 670 µM
IC50 [2]: 1800 ± 720 µM
EC50 [3]: 5150 ± 770 µM
IC50 [4]: 3550 ± 1550 µM
EC50 [5]: 2500 ± 1110 µM

Compound: N#Cc1c(-c2ccc([N+](=O)[O-])cc2)nn(C(=O)COc2cccc3cccnc23)c1N [4a, 5-Amino-3-(4-nitrophenyl)-1-(2-(quinolin-8-yloxy)acetyl)-1H-pyrazole-4-carbonitrile]
melting point: 157 to 159 °C
EC50 [1]: 1300 ± 1000 µM
IC50 [2]: 240 ± 50 µM
EC50 [3]: 1110 ± 270 µM
IC50 [4]: 720 ± 510 µM
EC50 [5]: 1500 ± 770 µM

Compound: CC(=NNC(=O)COc1cccc2cccnc12)c1ccc(N2C(=O)c3ccccc3C2=O)cc1 [compound 3, N’-(1-(4-(1,3-Dioxoisoindolin-2-yl)phenyl)ethylidene)-2-(quinolin-8-yloxy)acetohydrazide]
melting point: 211 to 213 °C
EC50 [1]: 1350 ± 1100 µM
IC50 [2]: 470 ± 350 µM
EC50 [3]: 1100 ± 550 µM
IC50 [4]: 910 ± 1550 µM
EC50 [5]: 1600 ± 1020 µM

Compound: COc1ccc(O)c(C(C)(C)C)c1 [BHA, Butylated hydroxyanisole, reference compound]
EC50 [1]: 640 ± 310 µM
EC50 [3]: 950 ± 170 µM
EC50 [5]: 800 ± 320 µM

Compound: N#Cc1c(-c2ccc(Cl)c(Cl)c2O)cc(N2C(=O)c3ccccc3C2=O)nc1N [compound 7d, 2-Amino-4-(3,4-dichloro-2-hydroxyphenyl)-6-(1,3-dioxoisoindolin-2-yl)nicotinonitrile]
EC50 [1]: 520 ± 250 µM
IC50 [2]: 70 ± 100 µM
EC50 [3]: 930 ± 120 µM
Ki (dissociation constant) ([6]; Dixon plot, mean ± SE): 0.75 mg
Mode of Inhibition ([6]; Lineweaver–Burk plot): competitive inhibition
IC20 ([6]; inhibitory concentration used in kinetics): 80 µM
1/Vmax (reciprocal maximum velocity) ([6]; treatment IC20 0.08 μg): 13.01 10^3 (µM/min)^−1
1/Vmax (reciprocal maximum velocity) ([6]; treatment IC40 0.16 μg): 13.90 10^3 (µM/min)^−1
1/Vmax (reciprocal maximum velocity) ([6]; treatment IC60 0.25 μg): 13.15 10^3 (µM/min)^−1
IC50 [4]: 210 ± 60 µM
IC20 [7]: 30 µM
Ki (dissociation constant) ([7]; α-glycosidase, Dixon plot, mean ± SE): 0.47 mg
Mode of Inhibition ([7]; α-glycosidase, Lineweaver–Burk plot): competitive inhibition
1/Vmax (reciprocal maximum velocity) ([7]; α-glycosidase, treatment IC20 0.03 μg): 28.82 10^3 (µM/min)^−1
1/Vmax (reciprocal maximum velocity) ([7]; α-glycosidase, treatment IC40 0.06 μg): 29.00 10^3 (µM/min)^−1
1/Vmax (reciprocal maximum velocity) ([7]; α-glycosidase, treatment IC60 0.08 μg): 29.29 10^3 (µM/min)^−1
EC50 [5]: 650 ± 30 µM

melting point: 137 to 139 °C
EC50 [1]: 4500 ± 1140 µM
IC50 ([2]; mean ± SE, triplicate, read-out: IC50 α-Glycosidase): 500 ± 660 µM
EC50 [3]: 4500 ± 1110 µM
IC50 [4]: 900 ± 1040 µM
EC50 [5]: 4650 ± 2250 µM
Compound: NNC(=O)COc1cccc2cccnc12 [compound 1, 2-(Quinolin-8-yloxy)acetohydrazide]

Compound: N#Cc1c(-c2ccc(Cl)cc2)nn(C(=O)COc2cccc3cccnc23)c1N [compound 4b, 5-Amino-3-(4-chlorophenyl)-1-(2-(quinolin-8-yloxy)acetyl)-1H-pyrazole-4-carbonitrile]
melting point: 163 to 165 °C
EC50 [1]: 4750 ± 420 µM
IC50 [2]: 990 ± 330 µM
EC50 [3]: 4500 ± 2000 µM
IC50 [4]: 1550 ± 1670 µM
EC50 [5]: 5000 ± 250 µM

Compound: N#Cc1c(-c2ccccc2)cc(N2C(=O)c3ccccc3C2=O)[nH]c1=O [compound 8a, 6-(1,3-Dioxoisoindolin-2-yl)-2-oxo-4-phenyl-1,2-dihydropyridine-3-carbonitrile]
melting point: 216 to 218 °C
EC50 [1]: 10000 ± 1170 µM
IC50 [2]: 1000 µM
EC50 [3]: 5780 ± 3010 µM
IC50 [4]: 880 ± 360 µM
EC50 [5]: 3250 ± 1230 µM
